Laboratory results: patent US20090155337A1, “METHOD AND AGENT FOR IN-SITU STABILIZATION OF VASCULAR TISSUE” (ENDOLOGIX, INC., priority 2007, published 2009)

Tested on: collagen
Assay: Shrinkage temperature testing of pericardial tissue fixed (cross-linked) in EGCG/PBS
Settings: for Shrinkage Temperature: pH 7.42, 37° C., fresh tissue control 62.6 +/− 0.6
Procedure: A 7 cm×7 cm piece of pericardial tissue was fixed in 40 ml of 0.5% EGCG/phosphate buffered saline (PBS), pH 7.42 in a 100 mm petri dish at 37° C., 82 rpm shaking speed, for 15 min. After 15 minutes, the tissue was quickly rinsed with PBS. Three samples were cut out for immediate shrinkage temperature testing (Group A). Shrinkage temperature can be an indication of the stability of the tissue. Increased shrinkage temperature is associated with an increased resistance to degradation. An additional 7 cm×7 cm piece of pericardial tissue was fixed in 40 ml of 0.5% EGCG/PBS, pH 7.42 in a 100 mm petri dish at 37° C. for 48 hours and quickly rinsed in PBS for 15 minutes. Six samples were cut out for shrinkage temperature testing (Group B). Six samples of fresh pericardial tissue were also cut for shrinkage temperature testing (Group C—Control Group).

With O=C(O[C@@H]1Cc2c(O)cc(O)cc2O[C@@H]1c1cc(O)c(O)c(O)c1)c1cc(O)c(O)c(O)c1 [EGCG, epigallocatechin gallate] the “Shrinkage Temperature” value (Group A: pericardial tissue cross-linked for 15 min in 0.5% EGCG/PBS) was 72.2 +/− 0.5 °C and the “Shrinkage Temperature” value (Group B: pericardial tissue cross-linked for 48 hours in 0.5% EGCG/PBS) was 86.3 +/− 0.6 °C.

In the case of Catechin, the “Stability of collagen via cross-linking” value (within 15 minutes of application under physiological conditions) was “increases the stability of collagen”.
